Experimental data reported in patent US6391890B1, “Heterocyclic compounds” (Novo Nordisk A/S, priority 1997, dated 2002).
Counter-ions that a name gives are not always drawn.

Columns and labels:
[1] = test system: histamine induced paw oedema; assay: Histamine induced paw oedema (rat, water plethysmography); assay type: in vivo; details: 1.0 mg/kg intraperitoneally, male Sprague-Dawley rats, paw swelling 20 minutes after histamine
Procedure: I. Histamine Induced Paw Oedema The rat histamine paw oedema test was performed essentially as described by Amann et al. (Europ. J. Pharmacol. 279, 227-231, 1995). In brief 250-300 g male Sprague-Dawley rats were anaesthetized with pentobarbital sodium, and placed on a 32 degree heated table. Ten minutes later histamine (50 micoliter, 3 mg/ml) was injected in the right hind paw and 20 minutes hereafter the paw swelling was determined by water plethysmography (Ugo Basile). Test compounds were administered intraperitoneally at 15 minutes before the anaesthetics.

[2] = test system: histamine induced blood glucose rise; assay: Histamine induced hyperglycemia in mice; assay type: in vivo; details: 1.0 mg/kg ip 30 min before histamine icv, male NMRI mice, blood glucose at 40 min
Procedure: II. Histamine Induced Hyperglycemia in Mice
Conscious unfasted 25 g male NMRI mice are administered histamine chloride (90 nmol) icv according to the method of Nishibori et al. (J. Pharmacol. Exp. Therap. 241, 582-286,1987). Blood glucose is determined at time 0 and 40 min after the histamine injection. Test compounds are administered at 1.0 mg/kg ip 30 min before the histamine injection, and % inhibition refers to the capacity of the compounds to inhibit the histamine induced blood glucose rise.

| melting point | SMILES | Inhibition of histamine induced paw oedema, % inhibition [1] | Inhibition of histamine induced hyperglycemia, % inhibition [2] |
| --- | --- | --- | --- |
| 127 to 130 °C | O=C(O)[C@@H]1CCCN(CCN2CCC(=C3c4ccccc4CSc4ccccc43)CC2)C1 (as salt: hydrochloride) | – | – |
| 245 to 255 °C (dec.) | O=C(O)C1CCCN(CCCN2CCC(=C3c4ccccc4CSc4ccccc43)CC2)C1 (stereo not shown) (as salt: hydrochloride) | – | – |

More lines, now with the values behind:

| SMILES | melting point | Inhibition of histamine induced paw oedema, % inhibition [1] | Inhibition of histamine induced hyperglycemia, % inhibition [2] |
| --- | --- | --- | --- |
| Cl.O=C(O)CN1CCC(=C2c3ccccc3CSc3ccccc32)CC1 | 170 to 175 °C | – | – |
| Cl.O=C(O)CCN1CCC(=C2c3ccccc3CCc3ccccc32)CC1 [Example 10, 3-(4-(10,11-Dihydro-5H-dibenzo[a,d]cyclohepten-5-ylidene)-1-piperidine)propionic acid hydrochloride] | – | 33% | 69% |
| Cl.O=C(O)CCN1CCN(C2c3ccccc3CCc3ccccc32)CC1 [Example 2, 3-(4-(10,11-Dihydro-5H-dibenzo[a,d]cyclohepten-5-yl)piperazin-1-yl)propionic acid hydrochloride] | – | 44% | – |
| Cl.O=C(O)CCN1CCC(=C2c3ccccc3CSc3ccccc32)CC1 | 176 to 186 °C (dec.) | – | – |
